The target of the assay is human S1P5 (Homo sapiens, UniProt Q9H228). Kind of assay: Saturation radioligand binding with [^3H]-ozanimod. The following applies: CHO cell membranes expressing human S1P5, saturation binding. The text has this: Stable clones of Chinese hamster ovary (CHO) cells expressing human S1P1 and S1P5 were generated by transfecting the cells with the N-terminal hemagglutinin-tagged receptor in pcDNA3.1 expression vectors followed by antibiotic selection for S1P1 and S1P5 and picking of clones using cyclic adenosine monophosphate assay, fluorescence-activated flow cytometry using the associated tag as well as functional [^35S]-GTPγS binding assays. Stable clones of CHO cells expressing human S1P2, S1P3, and S1P4 with an N-terminal FLAG tag were purchased from Multispan, Inc. (Hayward, CA, United States; catalog numbers C1051-1, CG1049-1, and CG1052-1 for S1P2, S1P3, and S1P4, respectively). Cells were grown to confluence in adherent culture in 500-cm^2 culture trays before being detached with cell scraper in cell-lifting buffer (10 mM HEPES/154 mM NaCl/6.85 mM ethylenediaminetetraacetic acid [EDTA], pH 7.4) and pelleted by centrifugation for 5 min at 1000 rpm. […]
Chain of human S1P5 (Q9H228 whole entry): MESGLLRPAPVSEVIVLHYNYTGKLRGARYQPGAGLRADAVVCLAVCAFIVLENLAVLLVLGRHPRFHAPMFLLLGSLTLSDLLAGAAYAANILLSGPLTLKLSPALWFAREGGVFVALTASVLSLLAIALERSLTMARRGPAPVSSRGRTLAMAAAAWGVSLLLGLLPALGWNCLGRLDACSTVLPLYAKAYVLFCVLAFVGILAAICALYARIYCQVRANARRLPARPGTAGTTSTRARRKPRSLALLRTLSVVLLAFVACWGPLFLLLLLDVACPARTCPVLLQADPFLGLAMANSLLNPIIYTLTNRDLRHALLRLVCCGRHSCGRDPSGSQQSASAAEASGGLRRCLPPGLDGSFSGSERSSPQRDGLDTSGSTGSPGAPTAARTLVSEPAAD
Filter plates were prepared by adding 80 μl/well of 0.3% poly (ethyleneimine) and incubating for 60 min at room temperature before washing with 150 ml of filtration buffer (50 mM Tris HCl [pH 7.4], 5 mM MgCl2, and 1 mM EDTA) using a FilterMate-96 harvester. […] Filter plates were then allowed to air dry before the addition of 50 μL/well of MicroScint-20 cocktail, plate sealing, and reading on a MicroBeta2 microplate scintillation counter. […]

The term Kd denotes the equilibrium constant for the complex coming apart. A higher Kd goes with a looser complex. On to `[3H]CC([3H])(C)Oc1ccc(-c2nc(-c3cccc4c3CC[C@@H]4NCCO)no2)cc1C#N` (stereo partly shown) [[^3H]-ozanimod], for which the Kd amounted to 3.13 nM.
